The values below come from US11208671B2, “Recombinant cell and method of producing itaconic acid” (City University of Hong Kong, priority 2019, dated 2021).

This assay has as its system Methylorubrum extorquens AM1. Put plainly: Tolerance of the strain to the inhibitory effect of itaconic acid. It is filed as cell-based. Conditions: itaconic acid 10 mM.

SMILES strings stand for the structures.

On to `C=C(CC(=O)O)C(=O)O` [itaconic acid], for which the “Tolerance to inhibitory effect of itaconic acid” value is on record as “highly tolerant”.
